From patent US11306064B2, “Benzothia(di)azepine compounds and their use as bile acid modulators” (Albireo AB, priority 2018, dated 2022) come the findings set out here.

Series [1] in a line: Bioavailability studies in mice. It counts as in vivo. As to conditions: mouse; C57BL/6 mice; single intravenous dose 1 mg/kg vs single oral dose 10 mg/kg; plasma LC-MS/MS. The protocol: C57BL/6 mice of 8-9 weeks old were used. For each test compound, two groups of 3 animals each were used. One group was administered a single intravenous dose of 1 mg/kg (vehicle 100% DMSO) through the tail vein and the other group was administered a single oral dose of 10 mg/kg through gavage needle. The group that was administered an oral dose was fasted overnight. Blood samples were collected after 0.083, 0.25, 0.5, 1, 2, 4, 6, 8 and 24 hours following intravenous administration, and after 0.25, 0.5, 1, 2, 4, 6, 8 and 24 hours following oral administration. Blood samples were taken from saphenous vein. 0.2% EDTA was used as the anticoagulant. The samples were analyzed by a discovery grade bioanalytical method developed for the estimation of test compound in plasma, using an LC-MS/MS system.

A further series has as its system HepaRG cells. The series is described as follows: HepaRG-based assay: 3H-taurocholic acid uptake in differentiated HepaRG cells. It counts as cell-based. As to conditions: 0.3 μM 3H-taurocholic acid and 7.5 μM cold taurocholic acid, 30 minutes. Summed up: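 Differentiated HepaRG cells cultured 7 days post-seeding were exposed for 30 min at 37 °C to 0.3 μM 3H-taurocholic acid plus 7.5 μM cold taurocholic acid with inhibitor (3-fold dilutions, 0.2% DMSO). Uptake was stopped on ice, washed with 1 mM unlabelled taurocholic acid, and counted by scintillation.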

The next series concerns the target T1, Human LBAT (Homo sapiens, UniProt Q14973).
T1 construct: expressed in transfected cells; kept under Geneticin selection
T1 sequence (Q14973 1-349): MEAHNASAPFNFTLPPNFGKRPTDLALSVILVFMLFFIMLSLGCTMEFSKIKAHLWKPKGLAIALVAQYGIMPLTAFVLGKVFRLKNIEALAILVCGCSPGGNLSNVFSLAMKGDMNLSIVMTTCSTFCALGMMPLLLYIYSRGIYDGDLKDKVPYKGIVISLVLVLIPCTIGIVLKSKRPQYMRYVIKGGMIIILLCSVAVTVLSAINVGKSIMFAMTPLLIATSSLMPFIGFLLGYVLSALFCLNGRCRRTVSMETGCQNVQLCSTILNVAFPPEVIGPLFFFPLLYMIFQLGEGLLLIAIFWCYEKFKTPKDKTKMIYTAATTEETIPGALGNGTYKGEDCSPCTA
The series is described as follows: LBAT (h/m) assay: 3H-taurocholic acid uptake in human LBAT-overexpressing cells. It counts as cell-based. The following applies: 0.3 μM 3H-taurocholic acid and 7.5 μM cold taurocholic acid, 20 minutes, read-out: hLBAT IC50. Summed up:
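LBAT-overexpressing cells, serum-free MEM-alpha, 20 min at 37° C with inhibitor (3-fold, 10-point) plus 0.3 μM 3H-taurocholic acid and cold taurocholic acid (7.5 μM human; 25 μM mouse), 0.2% DMSO. Stopped on ice, washed with 1 mM unlabelled taurocholate; uptake by scintillation counting.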

As usually defined, the bioavailability is the share of a dose that reaches the circulation, judged against a reference dose that is usually intravenous. A lower bioavailability goes with little systemic uptake. By IC50 is commonly meant the point on the concentration scale where inhibition reaches its midpoint. Compound `CCCCC1(CC)CN(c2ccccc2)c2cc(Br)c(O/C=C/C(=O)O)cc2S(=O)(=O)C1` (single isomer, unassigned) [Example 6, (E)-3-((7-bromo-3-butyl-3-ethyl-1,1-dioxido-5-phenyl-2,3,4,5-tetrahydro-1,5-benzothiazepin-8-yl)oxy)acrylic acid] yielded a bioavailability in series [1] of 100%. Besides, the IC50 was found to be 809 nM with HepaRG cells (Homo sapiens, HepaRG) and 156 nM at Human LBAT.
The corresponding values for `CCCCC1(CC)CN(c2ccccc2)c2cc(SC)c(O/C=C/C(=O)O)cc2S(=O)(=O)C1` (single isomer, unassigned) [Example 18, (E)-3-((3-butyl-3-ethyl-7-(methylthio)-1,1-dioxido-5-phenyl-2,3,4,5-tetrahydro-1,5-benzothiazepin-8-yl)oxy)acrylic acid] are 35%, 1260 nM and 80 nM.
For the compound `CCCCC1(CC)CN(c2ccccc2)c2cc(SC)c(O/C=C(\F)C(=O)O)cc2S(=O)(=O)C1` (single isomer, unassigned) [Example 43, (Z)-3-((3-butyl-3-ethyl-7-(methylthio)-1,1-dioxido-5-phenyl-2,3,4,5-tetrahydro-1,5-benzothiazepin-8-yl)oxy)-2-fluoroacrylic acid], the bioavailability in series [1] worked out at 44%. Besides, the IC50 was 405 nM in the series on HepaRG cells and 8 nM at Human LBAT.
Taken in the same sequence, the figures for `CCCCC1(CC)CN(c2ccccc2)c2cc(Cl)c(O/C=C(\F)C(=O)O)cc2S(=O)(=O)C1` (single isomer, unassigned) [Example 48, (Z)-3-((3-butyl-7-chloro-3-ethyl-1,1-dioxido-5-phenyl-2,3,4,5-tetrahydro-1,5-benzothiazepin-8-yl)oxy)-2-fluoroacrylic acid] were 18%, 260 nM and 8.1 nM.
Take `CCCCC1(CCCC)CN(c2ccccc2)c2cc(SC)c(O/C=C(\F)C(=O)O)cc2S(=O)(=O)C1` [Example 11, (Z)-3-((3,3-dibutyl-7-(methylthio)-1,1-dioxido-5-phenyl-2,3,4,5-tetrahydro-1,5-benzothiazepin-8-yl)oxy)-2-fluoroacrylic acid]: the bioavailability in series [1] came out at 27%. Further, the IC50 in the series with HepaRG cells (Homo sapiens, HepaRG) stood at 1090 nM; on Human LBAT, 45 nM.
`CCC1(CC)CN(c2ccccc2)c2cc(SC)c(O/C=C(\F)C(=O)O)cc2S(=O)(=O)C1` [Example 44, (Z)-3-((3,3-diethyl-7-(methylthio)-1,1-dioxido-5-phenyl-2,3,4,5-tetrahydro-1,5-benzothiazepin-8-yl)oxy)-2-fluoroacrylic Acid] displayed a bioavailability in series [1] of 100%. Further, the IC50 stood at 205 nM with HepaRG cells (Homo sapiens, HepaRG) and 9.1 nM on Human LBAT.
